# Results published in US20190161451A1, “HERBICIDAL PYRIMIDINE COMPOUNDS” (BASF SE, priority 2016, published 2019).
# Key:
# AMARE [1] = assay: greenhouse experiment, post-emergence treatment; format: in vivo, Amaranthus retroflexus; details: post-emergence method, scale from 0 to 100
# From the text: (§1) The culture containers used were plastic flowerpots containing loamy sand with approximately 3.0% of humus as the substrate. The seeds of the test plants were sown separately for each species.
# (§2) For the post-emergence treatment, the test plants were first grown to a height of 3 to 15 cm, depending on the plant habit, and only then treated with the active ingredients which had been suspended or emulsified in water. For this purpose, the test plants were either sown directly and grown in the same containers, or they were first grown separately as seedlings and transplanted into the test containers a few days prior to treatment.
# (§3) Depending on the species, the plants were kept at 10-25° C. or 20-35° C., respectively.
# (§4) The test period extended over 2 to 4 weeks. During this time, the plants were tended, and their response to the individual treatments was evaluated.
# (§5) Evaluation was carried out using a scale from 0 to 100. 100 means no emergence of the plants, or complete destruction of at least the aerial moieties, and 0 means no damage, or normal course of growth. A good herbicidal activity is given at values of at least 70 and a very good herbicidal activity is given at values of at least 85.
# (§6) The plants used in the greenhouse experiments were of the following species: […]
# ALOMY = assay: greenhouse experiment, post-emergence treatment; format: in vivo, Alopecurus myosuroides; details: post-emergence method, scale from 0 to 100
# From the text: as §1, §2, §3, §4, §5, §6
# APESV = assay: greenhouse experiment, pre-emergence treatment; format: in vivo, Apera spica-venti; details: pre-emergence method, scale from 0 to 100
# From the text: as §1
# (§7) For the pre-emergence treatment, the active ingredients, which had been suspended or emulsified in water, were applied directly after sowing by means of finely distributing nozzles.
# (§8) The containers were irrigated gently to promote germination and growth and subsequently covered with transparent plastic hoods until the plants had rooted. This cover caused uniform germination of the test plants, unless this had been impaired by the active ingredients.
# as §3, §4, §5, §6
# ECHCG [2] = assay: greenhouse experiment, pre-emergence treatment; format: in vivo, Echinocloa crus-galli; details: pre-emergence method, scale from 0 to 100
# From the text: as §1, §7, §8, §3, §4, §5, §6
# ECHCG [3] = assay: greenhouse experiment, post-emergence treatment; format: in vivo, Echinocloa crus-galli; details: post-emergence method, scale from 0 to 100
# From the text: as §1, §2, §3, §4, §5, §6
# AMARE [4] = assay: greenhouse experiment, pre-emergence treatment; format: in vivo, Amaranthus retroflexus; details: pre-emergence method, application rate 1000 g/ha, scale from 0 to 100
# From the text: as §1, §7, §8, §3, §4, §5, §6
# SETVI = assay: greenhouse experiment, post-emergence treatment; format: in vivo, Setaria viridis; details: post-emergence method, scale from 0 to 100
# From the text: as §1, §2, §3, §4, §5, §6
# ABUTH = assay: greenhouse experiment, post-emergence treatment; format: in vivo, Abutilon theophrasti; details: post-emergence method, application rate 1000 g/ha, scale from 0 to 100
# From the text: as §1, §2, §3, §4, §5, §6
smiles,measurement,setting,value
"O=C(O)c1nc(C2CC2)ncc1-c1cccc2c1OC(F)(F)O2 [example 2, 2-Cyclopropyl-5-(2,2-difluoro-1,3-benzodioxol-4-yl)pyrimidine-4-carboxylic Acid]",herbicidal activity against AMARE,AMARE [1]; application rate 1000 g/ha,very good (a very good herbicidal activity is given at values of at least 85)
same,herbicidal activity against ALOMY,ALOMY; application rate 1000 g/ha,very good (a very good herbicidal activity is given at values of at least 85)
same,herbicidal activity against APESV,APESV; application rate 1000 g/ha,very good (a very good herbicidal activity is given at values of at least 85)
same,herbicidal activity against ECHCG,ECHCG [2]; application rate 1000 g/ha,very good (a very good herbicidal activity is given at values of at least 85)
COC(=O)c1nc(C2CC2)ncc1-c1c(Cl)sc2ccccc12 [example 4],herbicidal activity against ALOMY,ALOMY; application rate 1000 g/ha,very good (a very good herbicidal activity is given at values of at least 85)
same,herbicidal activity against ECHCG,ECHCG [2]; application rate 1000 g/ha,good (A good herbicidal activity is given at values of at least 70)
O=C(O)c1nc(C2CC2)ncc1-c1cccc2c1OCC2 [example 5],herbicidal activity against ECHCG,ECHCG [3]; application rate 1000 g/ha,good (A good herbicidal activity is given at values of at least 70)
same,herbicidal activity against ECHCG,ECHCG [2]; application rate 1000 g/ha,good (A good herbicidal activity is given at values of at least 70)
O=C(O)c1nc(C2CC2)ncc1-c1cccc2c1OCO2 [example 6],herbicidal activity against AMARE,AMARE [1]; application rate 1000 g/ha,very good (a very good herbicidal activity is given at values of at least 85)
same,herbicidal activity against ALOMY,ALOMY; application rate 1000 g/ha,very good (a very good herbicidal activity is given at values of at least 85)
same,herbicidal activity against APESV,APESV; application rate 1000 g/ha,very good (a very good herbicidal activity is given at values of at least 85)
same,herbicidal activity against ECHCG,ECHCG [2]; application rate 1000 g/ha,very good (a very good herbicidal activity is given at values of at least 85)
same,herbicidal activity against AMARE,AMARE [4],very good (a very good herbicidal activity is given at values of at least 85)
COC(=O)c1nc(C2CC2)ncc1-c1cc2c(cc1Cl)OCO2 [example 9],herbicidal activity against ECHCG,ECHCG [3]; application rate 1000 g/ha,very good (a very good herbicidal activity is given at values of at least 85)
O=C(O)c1nc(C2CC2)ncc1-c1cc2c(cc1Cl)OCO2 [example 10],herbicidal activity against ALOMY,ALOMY; application rate 1000 g/ha,very good (a very good herbicidal activity is given at values of at least 85)
same,herbicidal activity against ECHCG,ECHCG [3]; application rate 1000 g/ha,good (A good herbicidal activity is given at values of at least 70)
same,herbicidal activity against APESV,APESV; application rate 1000 g/ha,very good (a very good herbicidal activity is given at values of at least 85)
same,herbicidal activity against ECHCG,ECHCG [2]; application rate 1000 g/ha,very good (a very good herbicidal activity is given at values of at least 85)
COC(=O)c1nc(C2CC2)ncc1-c1c(Cl)ccc2c1OCO2 [example 11],herbicidal activity against AMARE,AMARE [1]; application rate 1000 g/ha,good (A good herbicidal activity is given at values of at least 70)
same,herbicidal activity against ALOMY,ALOMY; application rate 1000 g/ha,very good (a very good herbicidal activity is given at values of at least 85)
same,herbicidal activity against ECHCG,ECHCG [2]; application rate 1000 g/ha,very good (a very good herbicidal activity is given at values of at least 85)
"COC(=O)c1nc(C2CC2)ncc1-c1csc2ccccc12 [example 12, Methyl 5-(benzothiophen-3-yl)-2-cyclopropyl-pyrimidine-4-carboxylate]",herbicidal activity against ECHCG,ECHCG [2]; application rate 2000 g/ha,very good (a very good herbicidal activity is given at values of at least 85)
O=C(O)c1nc(C2CC2)ncc1-c1csc2ccccc12 [example 13],herbicidal activity against AMARE,AMARE [1]; application rate 2000 g/ha,very good (a very good herbicidal activity is given at values of at least 85)
same,herbicidal activity against ALOMY,ALOMY; application rate 2000 g/ha,good (A good herbicidal activity is given at values of at least 70)
same,herbicidal activity against ECHCG,ECHCG [3]; application rate 2000 g/ha,good (A good herbicidal activity is given at values of at least 70)
same,herbicidal activity against ECHCG,ECHCG [2]; application rate 2000 g/ha,very good (a very good herbicidal activity is given at values of at least 85)
COC(=O)c1nc(C2CC2)ncc1-c1coc2ccccc12 [example 15],herbicidal activity against SETVI,SETVI; application rate 1000 g/ha,very good (a very good herbicidal activity is given at values of at least 85)
same,herbicidal activity against ECHCG,ECHCG [2]; application rate 1000 g/ha,very good (a very good herbicidal activity is given at values of at least 85)
O=C(O)c1nc(C2CC2)ncc1-c1coc2ccccc12 [example 16],herbicidal activity against ECHCG,ECHCG [3]; application rate 2000 g/ha,good (A good herbicidal activity is given at values of at least 70)
same,herbicidal activity against APESV,APESV; application rate 2000 g/ha,very good (a very good herbicidal activity is given at values of at least 85)
same,herbicidal activity against ECHCG,ECHCG [2]; application rate 2000 g/ha,very good (a very good herbicidal activity is given at values of at least 85)
"COC(=O)c1nc(C2CC2)ncc1-c1c(Cl)sc2ccccc12 [example 17, Methyl 5-(2-chlorobenzothiophen-3-yl)-2-cyclopropyl-pyrimidine-4-carboxylate]",herbicidal activity against SETVI,SETVI; application rate 2000 g/ha,very good (a very good herbicidal activity is given at values of at least 85)
COC(=O)c1nc(C2CC2)ncc1-c1c(Cl)oc2ccccc12 [example 19],herbicidal activity against ALOMY,ALOMY; application rate 2000 g/ha,good (A good herbicidal activity is given at values of at least 70)
O=C(O)c1nc(C2CC2)ncc1-c1c(Cl)oc2ccccc12 [example 20],herbicidal activity against APESV,APESV; application rate 2000 g/ha,very good (a very good herbicidal activity is given at values of at least 85)
COC(=O)c1nc(C2CC2)ncc1-c1cc2c(cc1Br)OCO2 [example 24],herbicidal activity against ALOMY,ALOMY; application rate 1000 g/ha,very good (a very good herbicidal activity is given at values of at least 85)
same,herbicidal activity against ECHCG,ECHCG [3]; application rate 1000 g/ha,very good (a very good herbicidal activity is given at values of at least 85)
O=C(O)c1nc(C2CC2)ncc1-c1cc2c(cc1Br)OCO2 [example 25],herbicidal activity against ABUTH,ABUTH,good (A good herbicidal activity is given at values of at least 70)
same,herbicidal activity against ALOMY,ALOMY; application rate 1000 g/ha,good (A good herbicidal activity is given at values of at least 70)
same,herbicidal activity against ECHCG,ECHCG [3]; application rate 1000 g/ha,good (A good herbicidal activity is given at values of at least 70)
same,herbicidal activity against APESV,APESV; application rate 1000 g/ha,very good (a very good herbicidal activity is given at values of at least 85)
same,herbicidal activity against ECHCG,ECHCG [2]; application rate 1000 g/ha,very good (a very good herbicidal activity is given at values of at least 85)
COC(=O)c1nc(C2CC2)ncc1-c1cc2c(cc1I)OCO2 [example 28],herbicidal activity against ALOMY,ALOMY; application rate 1000 g/ha,good (A good herbicidal activity is given at values of at least 70)
same,herbicidal activity against ECHCG,ECHCG [3]; application rate 1000 g/ha,good (A good herbicidal activity is given at values of at least 70)
same,herbicidal activity against ECHCG,ECHCG [2]; application rate 1000 g/ha,very good (a very good herbicidal activity is given at values of at least 85)
O=C(O)c1nc(C2CC2)ncc1-c1cc2c(cc1I)OCO2 [example 29],herbicidal activity against AMARE,AMARE [1]; application rate 1000 g/ha,very good (a very good herbicidal activity is given at values of at least 85)
COC(=O)c1nc(C2CC2)ncc1-c1cccc2c1OCCO2 [example 30],herbicidal activity against AMARE,AMARE [1]; application rate 1000 g/ha,very good (a very good herbicidal activity is given at values of at least 85)
O=C(O)c1nc(C2CC2)ncc1-c1cccc2c1OCCO2 [example 31],herbicidal activity against AMARE,AMARE [1]; application rate 1000 g/ha,very good (a very good herbicidal activity is given at values of at least 85)
same,herbicidal activity against ECHCG,ECHCG [3]; application rate 1000 g/ha,very good (a very good herbicidal activity is given at values of at least 85)
same,herbicidal activity against APESV,APESV; application rate 1000 g/ha,very good (a very good herbicidal activity is given at values of at least 85)
same,herbicidal activity against ECHCG,ECHCG [2]; application rate 1000 g/ha,very good (a very good herbicidal activity is given at values of at least 85)
COC(=O)c1nc(C2CC2)ncc1-c1c(Cl)cc2c(c1F)OCO2 [example 32],herbicidal activity against ALOMY,ALOMY; application rate 1000 g/ha,good (A good herbicidal activity is given at values of at least 70)
same,herbicidal activity against ECHCG,ECHCG [3]; application rate 1000 g/ha,good (A good herbicidal activity is given at values of at least 70)
same,herbicidal activity against ECHCG,ECHCG [2]; application rate 1000 g/ha,very good (a very good herbicidal activity is given at values of at least 85)
O=C(O)c1nc(C2CC2)ncc1-c1c(Cl)cc2c(c1F)OCO2 [example 33],herbicidal activity against ALOMY,ALOMY; application rate 1000 g/ha,good (A good herbicidal activity is given at values of at least 70)
same,herbicidal activity against ECHCG,ECHCG [3]; application rate 1000 g/ha,very good (a very good herbicidal activity is given at values of at least 85)
same,herbicidal activity against APESV,APESV; application rate 1000 g/ha,very good (a very good herbicidal activity is given at values of at least 85)
same,herbicidal activity against ECHCG,ECHCG [2]; application rate 1000 g/ha,very good (a very good herbicidal activity is given at values of at least 85)
COC(=O)c1nc(C2CC2)ncc1-c1c(Cl)cc2c(c1OC)OCO2 [example 35],herbicidal activity against ABUTH,ABUTH,very good (a very good herbicidal activity is given at values of at least 85)
COc1c2c(cc(Cl)c1-c1cnc(C3CC3)nc1C(=O)O)OCO2 [example 36],herbicidal activity against ALOMY,ALOMY; application rate 1000 g/ha,very good (a very good herbicidal activity is given at values of at least 85)
same,herbicidal activity against ECHCG,ECHCG [3]; application rate 1000 g/ha,very good (a very good herbicidal activity is given at values of at least 85)
same,herbicidal activity against APESV,APESV; application rate 1000 g/ha,very good (a very good herbicidal activity is given at values of at least 85)
